Columns and labels:
cattle = experiment: Uterine horn histology (endometrial epithelial thickness) in cattle; assay type: in vivo; details: intra-vaginally twice daily, 30 days, relative to control animals (FIG. 4)
Description: Oestrous was synchronised using two intramuscular injections of PGF2a (Lutalyse™) administered 11 days apart.
The pyrazolopyrimidinone PDE V inhibitor was administered intra-vaginally twice daily from day −3 of oestrus until day 6 of the following oestrus (30 days in total). Blood samples were collected daily, plasma was prepared as soon as possible and stored at −20° C. and then analysed for progesterone.
At the completion of the study (ie day 6 of the second oestrous period) the cattle were euthanised and the reproductive tract collected. A cross section of the left and right horns of each uterus was collected and stored in 10% Formalin and ten analysed histologically.

ob/ob mice [1] = experiment: Plasma triglycerides in ob/ob mice, 5 day dosing; assay type: in vivo, mouse; details: summary in words
Description: (§1) The selective pyrazolopyrimidinone PDEV inhibitor compounds to be tested were solubilized in 10% DMSO/0.1% pluronics and dosed via oral gavage using mouse oral feeding needles (20 gauge, Popper & Sons, Inc., New Hyde Park, N.Y.). A volume of 4 ml/kg weight was administered for each dose. Compounds were tested at doses ranging from 1-50 mg/kg. Alternatively, the test selective pyrazopyrimidinone PDEV inhibitor compound was administered in the drinking water and found to produce similar reductions in plasma glucose and triglycerides to the reductions observed for the same compound when administered by oral gavage. […]
(§2) Mice were allowed to acclimate to the Pfizer animal facilities for 1 week prior to the start of the study. On day one, retro-orbital blood samples were obtained and plasma glucose was determined as described hereinafter. […] Body weight was measured on days 1 and 5 of the study, and food consumption was assessed over the 5 day period.
(§3) On the morning of the last day of the study mice were dosed with test pyrazolopyrimidinone PDEV compound or vehicle at approximately 8:00 am. […] Plasma samples were stored at −80° C. until analyzed.
(§4) Plasma glucose and triglycerides were measured using the Alcyon Clinical Chemistry Analyzer (Abbott Laboratories, Abbott Park, Ill.) using kits supplied by Abbott. […]

ob/ob mice [2] = experiment: Plasma glucose in ob/ob mice, 5 day dosing; assay type: in vivo, mouse; details: summary in words
Description: as §1, §2, §3, §4

| Compound | endometrial epithelial thickness (cattle) | serum triglyceride levels (ob/ob mice [1]) | plasma glucose levels (ob/ob mice [2]) |
| --- | --- | --- | --- |
| CCCOc1ccc(S(=O)(=O)N2CCN(CC)CC2)cc1-c1nc2c(CC)n(Cc3ccccn3)nc2c(=O)[nH]1 [PDE5 A, 3-ethyl-5-[5-(4-ethylpiperazin-1-ylsulphonyl)-2-n-propoxyphenyl]-2-(pyridin-2-yl)methyl-2,6-dihydro-7H-pyrazolo[4,3-d]pyrimidin-7-one] | increases endometrial epithelial thickness | – | – |
| CCCc1nn(C)c2c(=O)[nH]c(-c3cc(S(=O)(=O)N4CCN(C)CC4)ccc3OCC)nc12 [PDE5 C, 5-[2-ethoxy-5-(4-methyl-1-piperazinylsulphonyl)phenyl]-1-methyl-3-n-propyl-1,6-dihydro-7H-pyrazolo[4,3-d]pyrimidin-7-one] | – | reduce | reduce |

Source: patent US20040029891A1, “Use of PDE5 inhibitors in the treatment of polycystic ovary syndrome” (Pfizer Inc., priority 2002, published 2004)
